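Growth conditions: 96-well plates. Treatment: test compound, 48 hours, 5 concentrations. Analysis: linear interpolation between bracketing concentrations; unreached endpoints set to highest concentration. Here, GI50 denotes the concentration required for 50% inhibition of growth.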 Activity calls are given as the source filed them. No stated cut-off is given here; in the data, active = GI50 up to about 1.1 µM and inactive = higher.
Assays:
Assay in all cases: NCI anticancer screen, dose series, 48 h
U-251 = system: U-251
SF-295 = system: SF-295
786-0 = system: 786-0
SK-OV-3 = system: SK-OV-3
SR = system: SR
SK-MEL-5 = system: SK-MEL-5
COLO 205 = system: COLO 205
SNB-19 = system: SNB-19
NCI-H23 = system: NCI-H23
SNB-75 = system: SNB-75
IGROV-1 = system: IGROV-1
SK-MEL-28 = system: SK-MEL-28
UACC-257 = system: UACC-257
MOLT-4 = system: MOLT-4
OVCAR-8 = system: OVCAR-8
HCT-15 = system: HCT-15
KM12 = system: KM12

| SMILES | GI50 (U-251) | GI50 (SF-295) | GI50 (786-0) | GI50 (SK-OV-3) | GI50 (SR) | GI50 (SK-MEL-5) | GI50 (COLO 205) | GI50 (SNB-19) | GI50 (NCI-H23) | GI50 (SNB-75) | GI50 (IGROV-1) | GI50 (SK-MEL-28) | GI50 (UACC-257) | GI50 (MOLT-4) | GI50 (OVCAR-8) | GI50 (HCT-15) | GI50 (KM12) |
| --- | --- | --- | --- | --- | --- | --- | --- | --- | --- | --- | --- | --- | --- | --- | --- | --- | --- |
| O=c1cc(CO)oc2c3c(cc(O)c12)OCC(COC1OC(CO)C(O)C(O)C1O)=CC3 (configuration not stated) | > 100 µM (inactive) | > 100 µM (inactive) | > 100 µM (inactive) | > 100 µM (inactive) | > 100 µM (inactive) | > 100 µM (inactive) | > 100 µM (inactive) | > 100 µM (inactive) | > 100 µM (inactive) | > 100 µM (inactive) | > 100 µM (inactive) | > 100 µM (inactive) | > 100 µM (inactive) | > 100 µM (inactive) | > 100 µM (inactive) | > 100 µM | > 100 µM (inactive) |
| c1ccc(C(c2ccccc2)c2ccccn2)cc1 | > 100 µM (inactive) | > 100 µM (inactive) | > 100 µM (inactive) | > 100 µM (inactive) | – | > 100 µM (inactive) | > 100 µM (inactive) | > 100 µM (inactive) | > 100 µM (inactive) | 52.5 µM (inactive) | > 100 µM (inactive) | > 100 µM (inactive) | > 100 µM (inactive) | – | > 100 µM (inactive) | > 100 µM | > 100 µM (inactive) |
| COC(=O)C1=C(C(=O)OC)C2(c3ccccc3)OC1(c1ccccc1)c1cc3ccccc3cc12 | 6.43 µM (inactive) | 6.28 µM (inactive) | 1.4 µM (inactive) | 11.2 µM (inactive) | – | 2.21 µM (inactive) | 2.11 µM (inactive) | 4.2 µM (inactive) | 1.92 µM (inactive) | 0.604 µM (active) | 1.9 µM (inactive) | 1.87 µM (inactive) | – | 0.733 µM (active) | 1.56 µM (inactive) | 1.82 µM | 1.97 µM (inactive) |
| CCO/C=C1\N=C(c2ccc(Cl)c(Cl)c2)OC1=O | – | > 100 µM (inactive) | > 100 µM (inactive) | – | – | > 100 µM (inactive) | > 100 µM (inactive) | > 100 µM (inactive) | > 100 µM (inactive) | 52.1 µM (inactive) | > 100 µM (inactive) | > 100 µM (inactive) | > 100 µM (inactive) | > 100 µM (inactive) | > 100 µM (inactive) | > 100 µM | > 100 µM (inactive) |
| Cc1ccc(/C=C2\CCCCC2=O)cc1 | > 100 µM (inactive) | > 100 µM (inactive) | > 100 µM (inactive) | > 100 µM (inactive) | – | 91.6 µM (inactive) | > 100 µM (inactive) | – | > 100 µM (inactive) | 29.6 µM (inactive) | > 100 µM (inactive) | > 100 µM (inactive) | – | 15.8 µM (inactive) | > 100 µM (inactive) | > 100 µM | – |
| CCc1ccccc1NC(=O)CC1NC(=O)CS1 (configuration not stated) | > 100 µM (inactive) | > 100 µM (inactive) | > 100 µM (inactive) | > 100 µM (inactive) | – | > 100 µM (inactive) | > 100 µM (inactive) | > 100 µM (inactive) | > 100 µM (inactive) | 37.5 µM (inactive) | > 100 µM (inactive) | > 100 µM (inactive) | > 100 µM (inactive) | > 100 µM (inactive) | > 100 µM (inactive) | – | > 100 µM (inactive) |
| COC(=O)C(=O)C(C(=O)C(=O)Nc1cc([N+](=O)[O-])ccc1C#N)c1nc2ccccc2nc1O (configuration not stated) | – | > 100 µM (inactive) | > 100 µM (inactive) | > 100 µM (inactive) | > 100 µM (inactive) | > 100 µM (inactive) | > 100 µM (inactive) | > 100 µM (inactive) | > 100 µM (inactive) | > 100 µM (inactive) | > 100 µM (inactive) | > 100 µM (inactive) | > 100 µM (inactive) | > 100 µM (inactive) | > 100 µM (inactive) | > 100 µM | > 100 µM (inactive) |
| CC(=O)O[C@H]1C(=O)[C@@]2(C)C([C@H](OC(=O)c3ccccc3)[C@]3(O)C[C@H](OC(=O)[C@H](O)[C@H](NC(=O)c4ccccc4)c4ccc(Cl)cc4)C(C)=C1C3(C)C)C1(OC(C)=O)CO[C@@H]1C[C@@H]2O (some centres not stated) | 0.00182 µM (active) | 0.0194 µM (active) | 0.00711 µM (active) | 0.00163 µM (active) | 0.000119 µM (active) | 0.000736 µM (active) | 0.00188 µM (active) | 0.0304 µM (active) | 0.00104 µM (active) | < 0.0001 µM (active) | 0.000136 µM (active) | 0.00157 µM (active) | 0.00425 µM (active) | 0.01 µM (active) | 0.00115 µM (active) | 0.516 µM | 0.000282 µM (active) |
| CC(CCc1ccc2c(c1)c(N)c1ccc(N)cc1[n+]2[O-])CC(C)(C)C (configuration not stated) | 1.38 µM (inactive) | 1.76 µM (inactive) | 1.5 µM (inactive) | – | 1.62 µM (inactive) | 1.65 µM (inactive) | 1.45 µM (inactive) | – | 1.31 µM (inactive) | 2.07 µM (inactive) | 1.49 µM (inactive) | 2.06 µM (inactive) | 1.99 µM (inactive) | 1.09 µM (active) | 1.72 µM (inactive) | 4.26 µM | 1.99 µM (inactive) |

— ChEMBL document CHEMBL1201862, “PubChem BioAssay data set” (2004)
